Key:
E3LZ10.7 = assay: Colony formation in soft agar after pre-treatment; format: cell-based, human
Method: (§1) (Top) Experimental scheme illustrating pre-treatment of pancreatic cancer cell lines with GSI-18, prior to plating for soft agar assays and subcutaneous injection in athymic mice. Treatment for 24 hours with GSI-18 or vehicle is followed by recovery in full serum for a further 24 hours minus the drug. Equal numbers of viable cells from the control and treated groups are then plated for colony assays in soft agar, or injected in nude mice. Of note, during the in vitro or in vivo assays, no further drug is administered. […] The dosage required for significant inhibition of clonogenicity varies between 2 μM (Capan-1) to 5 μM (E3LZ10.7). Bar graphs represent colony counts at two weeks, with mean and standard deviations calculated from triplicate experiments. (Left) Pre-treatment with GSI-18 inhibits tumorigenicity of Panc-1 pancreatic cancer cell line in athymic mice. […] Error bars represent standard deviation of five mice per arm.

DAOY = assay: Xenograft initiation by pretreated cells injected subcutaneously in athymic (nude) mice; format: in vivo
Method: A clonogenic assay was used to determine whether cells capable of initiating anchorage-independent colonies were depleted by GSI-18. In vehicle-treated DAOY cultures, 2.9% of cells formed large colonies when seeded in soft agar (FIG. 7H). This number dropped to 0.26% when an equal number of viable cells were counted and seeded after 48 hours of treatment with GSI-18, and increased to 7.2% in the presence of constitutive Notch2 activation. Initiation of tumor xenografts was assayed next, a strategy used in several previous studies to examine the presence or absence of cancer stem cells (6-8). DAOY and DAOY:NICD2 cultures were treated with either 2 μM GSI-18 or vehicle alone, and the viable cells remaining after 48 hours counted using Trypan blue. 500,000 viable cells from each group were then injected subcutaneously in athymic (nude) mice. Large xenografts formed at the sites of all 12 control injections. […] To rule out the possibility that cells were alive but moribund following gamma-secretase inhibition, the experiment was repeated with cells counted after a recovery period.

Akt = Akt phosphorylation and Caspase3 cleavage in GBM neurosphere cells; format: cell-based
Method: (A) Increase of cleaved Caspase 3 and loss of Akt phosphorylation is induced by 0.4 uMor higher levels of GSI-18, while overall levels of Akt and GAPDH are unchanged in DAOY medulloblastoma cells. (B) Cell death in 2 uM GSI-18 is reduced in a representative subclone of DAOY expressing activated Akt as compare to vector transfected cells. (C) Loss of Akt phosphorylation and activation of Caspase3 cleavage is induced by 2 μM or higher levels of GSI-18, while overall levels of Akt and GAPDH are unchanged in GBM neurosphere cells.
It has been shown that the Notch signaling pathway regulates normal stem cells in the Central Neural System (CNS), and that GBMs contain cancer stem cells (CSCs) with higher Notch activity (Cancer Research, 64:7011-21, 2004; Cancer Cell, 9:391-403, 2006). However, it has not been known if Notch pathway blockade could target CSCs in GBM. […] In the present study, we used GBM neurospheres to examine the effects of Notch pathway blockade in GBM. […] Furthermore, overexpression of an active form of Notch2 (NICD2) increases tumor growth in vitro.

[1] = system: panel of 10 human pancreatic cancer cell lines; assay: MTT growth assay; format: cell-based; settings: 96 hours; dosages of 2, 5, and 10 μM
[2] = system: Notch pathway target Hes1; assay: Hes1 mRNA and protein levels (RT PCR, Western blot); format: cell-based
Method: The DAOY, PFSK, D283 and D425 Med cell lines were obtained from the American Type Culture Collection. The low-passage MB line MB2 was derived from a tumor resected at Johns Hopkins Hospital. For treatment studies, cell were plated and allowed to grow overnight in MEM (Invitrogen, Carlsbad, Calif.) containing 10% FBS, then media was replaced the next morning with low serum (0.5% FBS) MEM containing GSI dissolved in DMSO. RNA and protein extractions, and all cell-based assays, were performed 48 hours after drug application unless otherwise noted. All experiments with error bars were performed in triplicate and shown as mean values with standard error unless otherwise noted. Cell mass was measured using CellTITER assays according to the manufacturer's instructions (Promega, Madison, Wis.). Cell number and viability were assessed using the Guava PCA and Viacount reagent according to instructions (Guava Technologies, Heyward, Calif.). Soft agar assays were performed as previously described (15) and scored either manually after 4 weeks or using as automated reader after 6 weeks. […] Soft agar assays were performed as previously described, with colonies counted using an automated reader (15).
Quantitative RT PCR for Notch1, Notch2 and Hes1 was performed as previously described (29), with all reactions normalized to actin (Applied Biosystems, Foster City, Calif.). […]

[3] = system: Panc-1 pancreatic cancer cell line; assay: Tumorigenicity of pre-treated cells injected subcutaneously in athymic mice; format: in vivo; settings: five weeks post-injection; no further drug administered; five mice per arm
Method: as §1

MB cultures = assay: Viable cell mass (CellTITER assay); format: cell-based
Method: (§2) The fact that cultures grew 2-fold or more during the same time period that side population was essentially ablated by Notch pathway blockade provides additional support for the notion that medulloblatoma CSC are especially vulnerable to Notch signaling inhibition.
(§3) The DAOY, PFSK, D283 and D425 Med cell lines were obtained from the American Type Culture Collection. The low-passage MB line MB2 was derived from a tumor resected at Johns Hopkins Hospital. For treatment studies, cell were plated and allowed to grow overnight in MEM (Invitrogen, Carlsbad, Calif.) containing 10% FBS, then media was replaced the next morning with low serum (0.5% FBS) MEM containing GSI dissolved in DMSO. RNA and protein extractions, and all cell-based assays, were performed 48 hours after drug application unless otherwise noted. All experiments with error bars were performed in triplicate and shown as mean values with standard error unless otherwise noted. Cell mass was measured using CellTITER assays according to the manufacturer's instructions (Promega, Madison, Wis.). Cell number and viability were assessed using the Guava PCA and Viacount reagent according to instructions (Guava Technologies, Heyward, Calif.). Soft agar assays were performed as previously described (15) and scored either manually after 4 weeks or using as automated reader after 6 weeks. The constitutively active Akt stable cell line was made by transfecting DAOY cells with myristolated Akt (pCB6-IMy-Akt-HA) or control (pCB6+) plasmids (kind gifts from Susan J. Baker) and selecting and maintaining clones in 0.8 mg/ml G418. Soft agar assays were performed as previously described, with colonies counted using an automated reader (15).

DAOY:NICD2 = assay: Viable cell mass (CellTITER assay); format: cell-based; settings: 0.4 μM and 2 μM
Method: as §2, §3

O=S(=O)(NC1C2CCC1Cc1ccccc1C2)c1cccs1 (stereo not drawn) [GSI-18, [11-endo]-N-(5,6,7,8,9,10-hexahydro-6,9-methanobenzo[α][8]annulen-11-yl)-thiophene-2-sulfonamide]
colony formation following pre-treatment (E3LZ10.7; 24 hours pre-treatment, 24 hours recovery minus drug, colony counts at two weeks): Significant inhibition of colony formation | dosage required for significant inhibition of clonogenicity (E3LZ10.7; pre-treatment): 5 µM | xenograft formation from pretreated cells (DAOY; 2 μM, 48 hours pretreatment, 500,000 viable cells injected subcutaneously): only one very small lesion formed among the four sites | tumor formation from pretreated cells after recovery (DAOY; two days of treatment, 24 hours recovery in 10% FBS without inhibitor): unable to form tumors | levels inducing loss of Akt phosphorylation and activation of Caspase3 cleavage (Akt; GBM neurosphere cells): ≥ 2 µM | expression of cleaved caspase 3 and phosphorylated Akt (Akt; GBM neurosphere lines): Increased expression of cleaved caspase 3 and reduced expression of phosphorelated Akt | in vitro growth measured by MTT assays [1]: modest to minimal effects on growth | reduction of mRNA and protein levels of Hes1 ([2]; 2 μM, after 48 hours): over 70% | levels that did not affect Hes1 mRNA levels ([2]; data not shown): lower than 0.4 μM | tumor volumes from pre-treated cells [3]: minimal tumor volumes | short-term increases in viable cell mass (MB cultures; 0 μM, 0.4 μM, and 2 μM): reduced in a dose-dependent fashion | growth of cultures during Notch pathway blockade (MB cultures; same time period in which side population was ablated): ≥ 2 fold | growth (viable cell mass) under NICD2 expression (DAOY:NICD2): rescued growth

Source: patent US20140227173A1, “CANCER TREATMENT WITH GAMMA-SECRETASE INHIBITORS” (The Johns Hopkins University, priority 2006, published 2014)
